Series [1] deals with human red blood cells (hRBCs). The series is described as follows: Hemolytic activity. Particulars: 4% (v/v) hRBCs in PBS pH 7.4, 1 h at 37°C, absorbance at 405 nm; maximum concentration 256 µg/mL. Format: cell-based. As to the method: Hemolytic activity of peptides was tested against hRBCs. Fresh hRBCs were washed three times with phosphate-buffered saline (PBS; 35-mM phosphate buffer containing 150 mM of NaCl, pH 7.4) by centrifugation for 10 min at 1000×g and then re-suspended in PBS. The peptide solutions (serial two-fold dilutions in PBS) were then added to 100 µL of hRBCs in PBS to give a final volume of 200 µL and a final erythrocyte concentration of 4% (v/v). The resulting suspension was incubated with agitation for 1 h at 37°C. The samples were then centrifuged at 1000×g for 5 min, and hemoglobin release was monitored by measuring the absorbance of the supernatant at 405 nm. No hemolysis (blank) and 100% hemolysis controls consisted of hRBCs suspended in PBS and 0.1% Triton X-100, respectively. Percent hemolysis was calculated using the following equation: [drawing 1]

Series [2] concerns four bacterial strains (E. coli, P. aeruginosa, S. epidermidis, S. aureus). Type of series: cell-based. Particulars: four bacterial strains. As to the method:
(§1) The prokaryotic selectivity of our designed HDAMPs is defined by the therapeutic index (TI) as a measure of the relative safety of the drug. It is a measure of a peptide's capability to differentiate any pathogen from a host cell. The TI value of each peptide was calculated as the ratio of the HC10 (the peptide concentration that produces 10% hemolysis toward hRBCs) to the geometric mean [GM; the geometric mean of the minimal inhibitory concentration (MIC) against four selected bacterial strains]. Larger values of TI correspond to greater prokaryotic selectivity.
(§2) The antimicrobial activity of the peptides against two Gram-positive bacterial strains and two Gram-negative bacterial strains was examined using the broth microdilution method in sterile 96-well plates. Aliquots (100 µL) of a bacterial suspension at 2×10^6 colony-forming units (CFU)/mL in 1% peptone were added to 100 µL of the peptide solution (serial two-fold dilutions in 1% peptone). After incubation for 18−20 h at 37°C, bacterial growth inhibition was determined by measuring the absorbance at 600 nm with a Microplate Autoreader EL 800 (Bio-Tek Instruments, VT). The minimal inhibitory concentration (MIC) was defined as the minimum peptide concentration inhibited bacteria growth. Two types of Gram-positive bacteria (S. epidermidis [KCTC 1917] and S. aureus [KCTC 1621]) and two types of Gram-negative bacteria (E. coli [KCTC 1682] and P. aeruginosa [KCTC 1637]) were procured from the Korean Collection for Type Cultures (KCTC) at the Korea Research Institute of Bioscience and Biotechnology (KRIBB). MRSA samples (CCARM 3089, CCARM 3090, and CCARM 3095) were obtained from the Culture Collection of Antibiotic-Resistant Microbes (CCARM) at Seoul Women's University (Seoul, Korea).

For series [3], the system named is S. epidermidis [KCTC 1917]. Type of series: cell-based, Staphylococcus epidermidis. The conditions noted are these: broth microdilution, 1% peptone, 18−20 h at 37°C, absorbance at 600 nm. As to the method:
as §2

Series [4] has as its system hRBCs versus four bacterial strains. Put plainly: Prokaryotic selectivity (therapeutic index, HC10/GM). The conditions noted are these: ratio of HC10 to GM; 512 µg/mL used for HC10 >256 and 128 µg/mL for MIC >64. The protocol:
as §1

Series [5] has as its system P. aeruginosa [KCTC 1637]. Format: cell-based, Pseudomonas aeruginosa. Particulars: broth microdilution, 1% peptone, 18−20 h at 37°C, absorbance at 600 nm. The protocol: as §2
For the next series, the system named is S. aureus [KCTC 1621]. Format: cell-based, Staphylococcus aureus. Particulars: broth microdilution, 1% peptone, 18−20 h at 37°C, absorbance at 600 nm. As to the method: as §2
In another series the test system is E. coli [KCTC 1682]. Format: cell-based, Escherichia coli. The conditions noted are these: broth microdilution, 1% peptone, 18−20 h at 37°C, absorbance at 600 nm. The protocol: as §2
Series [6] in a line: Hydrophobicity by RP-HPLC retention time. Type of series: physicochemical. The conditions noted are these: measure of hydrophobicity; Vydac C18 analytical column 5 µm, 4.6 mm ×250 mm; linear gradient 0–90% acetonitrile in water, 0.05% TFA, 60 min. The text has this:
A series of Trp (W)/Arg (R)–rich peptides [(WR)3-NH2, (WR)2-NH2 and RWR-NH2], reported as being short and potent antimicrobial peptides, were used as sequence templates, and their antimicrobial and hemolytic activities were compared to seven HDAMPs (Figure 2). Matrix-assisted laser-desorption ionization time-of-flight mass spectrometry (MALDI-TOF MS) was used to verify the molecular weight of both Trp/Arg-rich AMPs and the seven HDAMPs. Human cathelicidin LL-37, a potent antimicrobial and anti-inflammatory peptide, served as a positive control for comparing the antimicrobial, hemolytic, and anti-inflammatory activities. The hydrophobicity of all of the peptides was measured with the use of reverse-phase high-performance liquid chromatography (RP-HPLC) retention time (Rt).
All peptides were prepared by Fmoc SPPS methods using Rink amide with an initial loading of 0.61 mmol/g, unless otherwise noted. Fmoc-Arg(Pbf)-OH and other Fmoc-protected amino acids were purchased from Novabiochem. Resins were swollen in DMF for 45 min prior to synthesis. […] The final purity and hydrophobicity of the peptides (>98%) were assessed by RP-HPLC on an analytical Vydac C18 column (4.6 mm ×25 0 mm, 300 Å, 5 µm particle size, Table 3). The molecular masses of purified peptides were determined using MALDI-TOF MS (Shimadzu, Japan).

Residues, ends and D or L forms follow the SMILES beside them. A value given as a limit tells only on which side of the number the result lay.

As for `N=C(N)NCCC[C@H](NC(=O)[C@H](Cc1c[nH]c2ccccc12)NC(=O)[C@H](CCCNC(=N)N)NC(=O)[C@@H](N)Cc1c[nH]c2ccccc12)C(N)=O` [(WR)2-NH2, reference compound] (H-WRWR-NH2), in series [1], the “% Hemolysis (HC10), peptide concentration that induces 10% hemolysis against human erythrocytes” value is >256 (>364.5) µg/mL. Also, the “GM, geometric mean of the MIC values against four bacterial strains” value in series [2] is given as 26 (37) µg/mL. In addition, in series [3], the “Minimal Inhibitory Concentration (MIC) S. epidermidis [KCTC 1917]” value is reported as 8 (11.4) µg/mL. For the same compound, the “TI (HC10/GM), therapeutic index” value in series [4] is reported as 19.7. Further, the “Minimal Inhibitory Concentration (MIC) P. aeruginosa [KCTC 1637]” value in series [5] is 32 (45.6) µg/mL. The “Minimal Inhibitory Concentration (MIC) S. aureus [KCTC 1621]” value in the series on S. aureus [KCTC 1621] is listed as 32 (45.6) µg/mL. In the series on E. coli [KCTC 1682], the “Minimal Inhibitory Concentration (MIC) E. coli [KCTC 1682]” value is reported as 32 (45.6) µg/mL.
In the case of `N=C(N)NCCC[C@H](NC(=O)[C@H](Cc1c[n+](CCCCCCCc2ccccc2)cn1CCCCCCCc1ccccc1)NC(=O)[C@H](CCCNC(=N)N)NC(=O)[C@@H](N)Cc1c[n+](CCCCCCCc2ccccc2)cn1CCCCCCCc1ccccc1)C(N)=O` [Tetrameric HDAMP, His((CH2)7C6H5)2-Arg-His((CH2)7C6H5)2-Arg-NH2], the “RP-HPLC retention time (Rt)” value in series [6] is 37.7 min.

The record behind these values is paper PMC3841161, “De Novo Design and Synthesis of Ultra-Short Peptidomimetic Antibiotics Having Dual Antimicrobial and Anti-Inflammatory Activities” (PLoS ONE, 2013).
